Experimental findings from patent US20170274087A1, “SACCHARIDE ANALOGS AND AGENTS FOR THE DIAGNOSIS AND THERAPY OF BACTERIAL INFECTIONS” (Emory University, priority 2014, published 2017) are described below.

One data set deals with P. aeruginosa. As to the kind of experiment: P. aeruginosa growth inhibition (absorption, OD600). The note with it: up to a 10 μM concentration; multidrug-resistant clinical isolate. The format is cell-based. The method, then:
TM-R and free radezolid were incubated with P. aeruginosa for 24 hours. OD600 were used to determine the bacteria growth.
P. aeruginosa (5×10^8 CFUs) were incubated with various concentrations of either radezolid or TMR and the MIC was determined via absorption measurements. The P. aeruginosa strain used in this experiment was a clinical isolate, resistant to multiple antibiotics, obtained from a blood stream infection.

The next data set relates to Giardia. As to the kind of experiment: Giardia growth assay in 96 well plates (coulter counter). The class given is cell-based. As to conditions: 48 hours, 37° C., DMSO at or below 0.1%. The method, then:
Methods for evaluating EC50 measurements in Giardia were established. Giardia cells were cultured in 96 well microtiter plates in anaerobic BD Bio-Bags (Becton Dickinson). Growth was assayed with a MoxiZ coulter counter (Orflo Technologies). The TMM and metroinadazole stock solutions contained DMSO to improve solubility. Giardia growth in 96 well plates with various volumes of TYDK media 10 and DMSO concentrations were evaluated over several days at 37° C. Cells grew more consistently in higher volumes of media and noted reduced growth in DMSO concentrations above 0.25%. […] Growth was evaluated after 48 hours.

The next data set has as its system maltase. As to the kind of experiment: in vitro. The method, then:
The stability of thiomaltose and maltose was investigated in the presence of maltase. Thiomaltose and maltose were incubated with 10 units of maltase, which is an enzyme that breaks maltose into two glucose molecules. The hydrolysis kinetics of thiomaltose and maltose was determined by quantifying the glucose released from thiomaltose or maltose hydrolysis.

As for `CC(=O)NC[C@H]1CN(c2ccc(-c3ccc(CNCc4cnn[nH]4)cc3)c(F)c2)C(=O)O1` [radezolid], the “efficacy against P. aeruginosa growth (in words)” value with P. aeruginosa was “no efficacy”.

As for `Cc1ncc([N+](=O)[O-])n1CCO` [metronidazole], the EC50 (as a rule, the midpoint of the concentration-response curve) with Giardia worked out at 1.7 µM.

For the compound `OC[C@H]1O[C@H](O[C@H]2[C@H](O)[C@@H](O)[C@H](O)O[C@@H]2CO)[C@H](O)[C@@H](O)[C@@H]1O` [maltose], the half-life (in general, the time needed for the level to fall by half in the phase considered) in the data set with maltase was approximately 30 min. Moreover, in the data set with maltase (3 hours, 10 units of maltase), the “maltase hydrolysis (in words)” value is given as “hydrolyzed completely”.

On to `OCC1OC(SC2C(CO)OC(O)C(O)C2O)C(O)C(O)C1O` (stereo not drawn) [thiomaltose], for which, in the data set on maltase (3 hours, 10 units of maltase), the hydrolyzed by maltase entry is “less than 1%” and the “maltase hydrolysis (in words)” value was “negligible hydrolysis”.
